The target in assay [1] is T1, Diacylglycerol lipase-beta (Mus musculus, UniProt Q91WC9).
T1 sequence (Q91WC9 whole entry): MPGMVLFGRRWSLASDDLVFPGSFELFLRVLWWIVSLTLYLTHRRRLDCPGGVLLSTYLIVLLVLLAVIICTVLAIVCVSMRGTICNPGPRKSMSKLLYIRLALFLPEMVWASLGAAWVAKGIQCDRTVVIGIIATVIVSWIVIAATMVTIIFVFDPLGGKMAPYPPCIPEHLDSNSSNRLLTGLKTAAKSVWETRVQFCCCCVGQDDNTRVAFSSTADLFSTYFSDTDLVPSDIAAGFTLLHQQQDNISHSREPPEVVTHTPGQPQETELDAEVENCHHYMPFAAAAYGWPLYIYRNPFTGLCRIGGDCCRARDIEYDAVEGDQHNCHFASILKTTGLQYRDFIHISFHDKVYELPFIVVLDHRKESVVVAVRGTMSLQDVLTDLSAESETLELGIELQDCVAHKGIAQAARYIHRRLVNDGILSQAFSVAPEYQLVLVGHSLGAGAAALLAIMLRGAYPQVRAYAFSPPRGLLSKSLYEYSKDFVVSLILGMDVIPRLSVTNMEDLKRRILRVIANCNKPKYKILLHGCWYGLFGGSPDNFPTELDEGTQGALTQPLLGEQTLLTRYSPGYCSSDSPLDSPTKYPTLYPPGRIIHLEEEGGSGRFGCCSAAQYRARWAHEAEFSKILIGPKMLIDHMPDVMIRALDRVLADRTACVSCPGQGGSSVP
Briefly: Inhibition mouse DAGLbeta expressed in HEK293T cell membrane fractions using DAG as substrate preincubated for 30 mins followed by ABP HT01 probe addition measured after 30 mins in presence of probe by gel-based ABPP competition assay.

Assay [2] has as its target T2, Diacylglycerol lipase-alpha (Homo sapiens, UniProt Q9Y4D2).
T2 sequence (Q9Y4D2 whole entry): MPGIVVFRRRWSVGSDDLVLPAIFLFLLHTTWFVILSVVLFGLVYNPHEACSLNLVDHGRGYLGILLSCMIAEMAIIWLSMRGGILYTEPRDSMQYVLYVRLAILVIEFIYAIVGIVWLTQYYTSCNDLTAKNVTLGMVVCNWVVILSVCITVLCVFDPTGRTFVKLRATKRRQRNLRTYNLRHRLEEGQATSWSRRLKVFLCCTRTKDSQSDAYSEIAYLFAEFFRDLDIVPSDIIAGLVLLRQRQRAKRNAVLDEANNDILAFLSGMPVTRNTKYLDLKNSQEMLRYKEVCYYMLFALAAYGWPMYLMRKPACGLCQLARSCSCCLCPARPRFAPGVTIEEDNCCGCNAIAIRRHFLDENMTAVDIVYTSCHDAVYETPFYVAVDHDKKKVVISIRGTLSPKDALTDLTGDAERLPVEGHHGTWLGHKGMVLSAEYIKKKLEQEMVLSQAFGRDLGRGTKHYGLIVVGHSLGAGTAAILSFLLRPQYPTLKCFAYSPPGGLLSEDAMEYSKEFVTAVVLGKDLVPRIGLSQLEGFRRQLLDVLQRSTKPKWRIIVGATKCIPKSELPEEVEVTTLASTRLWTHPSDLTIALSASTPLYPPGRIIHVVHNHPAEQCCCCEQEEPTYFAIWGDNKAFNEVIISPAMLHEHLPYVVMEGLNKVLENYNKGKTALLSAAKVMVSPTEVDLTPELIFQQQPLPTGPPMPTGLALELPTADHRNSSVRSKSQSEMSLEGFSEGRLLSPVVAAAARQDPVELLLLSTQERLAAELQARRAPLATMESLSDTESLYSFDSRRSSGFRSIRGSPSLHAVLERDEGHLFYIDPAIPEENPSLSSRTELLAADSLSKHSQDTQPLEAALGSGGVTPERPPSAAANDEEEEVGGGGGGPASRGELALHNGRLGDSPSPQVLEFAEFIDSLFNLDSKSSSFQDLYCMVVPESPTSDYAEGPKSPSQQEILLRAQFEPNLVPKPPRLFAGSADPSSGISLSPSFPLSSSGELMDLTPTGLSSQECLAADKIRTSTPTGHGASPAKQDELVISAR
Kind of assay: Inhibition human DAGLalpha expressed in HEK293T cell membrane fractions using DAG as substrate preincubated for 30 mins followed by ABP HT01 probe addition measured after 30 mins in presence of probe by gel-based ABPP competition assay.

For assay [3], the target named is T3, Diacylglycerol lipase-beta (Homo sapiens, UniProt Q8NCG7).
T3 sequence (Q8NCG7 whole entry): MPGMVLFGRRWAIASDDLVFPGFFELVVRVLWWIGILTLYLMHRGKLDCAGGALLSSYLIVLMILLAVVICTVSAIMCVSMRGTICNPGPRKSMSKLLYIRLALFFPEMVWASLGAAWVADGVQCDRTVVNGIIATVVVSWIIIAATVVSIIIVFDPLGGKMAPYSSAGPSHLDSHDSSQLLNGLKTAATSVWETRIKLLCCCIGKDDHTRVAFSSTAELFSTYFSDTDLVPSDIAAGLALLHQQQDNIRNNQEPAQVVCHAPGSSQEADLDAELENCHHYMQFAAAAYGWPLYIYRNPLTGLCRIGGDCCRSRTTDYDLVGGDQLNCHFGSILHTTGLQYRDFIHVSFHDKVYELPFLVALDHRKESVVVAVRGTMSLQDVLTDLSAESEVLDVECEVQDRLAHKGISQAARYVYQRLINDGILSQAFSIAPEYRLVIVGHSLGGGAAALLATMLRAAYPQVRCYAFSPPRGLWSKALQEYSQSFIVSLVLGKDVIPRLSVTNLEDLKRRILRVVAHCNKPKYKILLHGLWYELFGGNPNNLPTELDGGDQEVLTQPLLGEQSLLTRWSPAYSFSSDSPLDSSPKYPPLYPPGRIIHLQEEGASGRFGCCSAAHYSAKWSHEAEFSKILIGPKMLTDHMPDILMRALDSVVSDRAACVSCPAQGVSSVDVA
Briefly: Inhibition of human GST-tagged DAGLbeta catalytic domain expressed in HEK293F cell membranes using EnzChek as substrate preincubated for 5 mins followed by substrate addition by fluorogenic surrogate substrate assay.

A further assay deals with Cannabinoid receptor 1 (Homo sapiens, UniProt P21554). Kind of assay: Antagonist activity at CBR1 (unknown origin).
Assay [4] concerns the target T2, Diacylglycerol lipase-alpha. Briefly: Inhibition of human C-terminal HA-tagged DAGLalpha expressed in HEK293F cell membrane fractions using PNP butyrate as substrate by colorimetric surrogate substrate assay.
Assay [5] shares this target. Briefly: Inhibition of human C-terminal HA-tagged DAGLalpha expressed in HEK293F cell membrane fractions using DiFMU-octanoate as substrate by fluorogenic surrogate substrate assay.
For assay [6], the target named is T1, Diacylglycerol lipase-beta. Kind of assay: Inhibition of full length 3' FLAG-tagged mouse DAGLbeta expressed in African green monkey COS7 cells using sn-1-stearoyl-[14C]-arachidonoyl-glycerol as substrate preincubated for 15 mins followed by substrate addition measured after 30 mins by radiometric natural substrate assay. It is filed as cell-based.
Assay [7] has as its target T1, Diacylglycerol lipase-beta. Kind of assay: Inhibition of V-tagged mouse DAGLbeta expressed in […] cell membrane fractions using SAG as substrate assessed as accumulation of 2-AG preincubated for 30 mins followed by substrate addition measured after 30 mins by LC-MS natural substrate assay.
Assay [8] has as its target T1, Diacylglycerol lipase-beta. Briefly: Inhibition of mouse DAGLbeta expressed in HEK293T cell membranes using SAG as substrate preincubated for 20 mins followed by substrate addition by enzyme coupled natural substrate assay.
Assay [9] addresses T2, Diacylglycerol lipase-alpha. Kind of assay: Inhibition of human GST-tagged DAGLalpha expressed in HEK293F cell membranes using 1-stearoyl-2-arachidonoyl-sn-glycerol as substrate preincubated for 20 mins followed by substrate addition by enzyme coupled natural substrate assay.
Assay [10] concerns the target T4, Diacylglycerol lipase-alpha (Mus musculus, UniProt Q6WQJ1).
T4 sequence (Q6WQJ1 whole entry): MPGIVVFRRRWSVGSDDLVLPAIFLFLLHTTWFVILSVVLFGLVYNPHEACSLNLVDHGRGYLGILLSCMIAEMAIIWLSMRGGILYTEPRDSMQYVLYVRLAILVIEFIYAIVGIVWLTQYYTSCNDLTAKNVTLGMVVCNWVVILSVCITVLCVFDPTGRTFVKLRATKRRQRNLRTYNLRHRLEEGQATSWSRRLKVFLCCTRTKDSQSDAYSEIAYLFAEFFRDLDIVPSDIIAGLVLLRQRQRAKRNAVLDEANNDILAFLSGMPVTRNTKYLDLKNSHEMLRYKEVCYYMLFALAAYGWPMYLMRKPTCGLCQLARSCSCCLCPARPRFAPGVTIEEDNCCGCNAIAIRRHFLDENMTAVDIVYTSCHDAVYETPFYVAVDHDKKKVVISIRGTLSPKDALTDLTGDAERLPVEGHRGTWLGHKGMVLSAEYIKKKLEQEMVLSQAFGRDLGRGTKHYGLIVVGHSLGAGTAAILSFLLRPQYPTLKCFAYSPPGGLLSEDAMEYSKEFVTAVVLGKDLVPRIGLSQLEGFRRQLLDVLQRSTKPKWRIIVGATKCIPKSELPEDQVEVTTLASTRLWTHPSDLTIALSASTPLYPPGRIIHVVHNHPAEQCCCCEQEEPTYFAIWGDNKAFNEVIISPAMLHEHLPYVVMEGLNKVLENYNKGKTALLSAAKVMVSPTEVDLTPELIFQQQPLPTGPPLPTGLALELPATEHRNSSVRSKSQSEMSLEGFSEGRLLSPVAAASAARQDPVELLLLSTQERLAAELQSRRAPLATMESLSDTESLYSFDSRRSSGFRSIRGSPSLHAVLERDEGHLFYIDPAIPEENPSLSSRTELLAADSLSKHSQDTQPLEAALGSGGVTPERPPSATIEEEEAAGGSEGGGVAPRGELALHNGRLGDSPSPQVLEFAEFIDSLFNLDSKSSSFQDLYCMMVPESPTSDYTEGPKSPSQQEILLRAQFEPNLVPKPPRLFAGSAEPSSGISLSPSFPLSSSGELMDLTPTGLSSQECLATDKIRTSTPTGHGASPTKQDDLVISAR
Kind of assay: Inhibition of DAGLalpha in mouse brain proteome pre-incubated for 30 mins followed by ABP MB064 probe addition for 15 mins by ABPP assay. It is filed as subcellular.

Assay [11] concerns the target T2, Diacylglycerol lipase-alpha. Briefly: Inhibition of human DAGLalpha expressed in HEK293T cell membrane fractions using PNP butyrate as substrate preincubated for 20 mins followed by substrate addition by colorimetric surrogate substrate assay.

This note sets out measurements from ChEMBL document CHEMBL4425142, “Inhibitors of diacylglycerol lipases in neurodegenerative and metabolic disorders” (Bioorg Med Chem Lett, 2016).

Chain of Cannabinoid receptor 1 (P21554 whole entry): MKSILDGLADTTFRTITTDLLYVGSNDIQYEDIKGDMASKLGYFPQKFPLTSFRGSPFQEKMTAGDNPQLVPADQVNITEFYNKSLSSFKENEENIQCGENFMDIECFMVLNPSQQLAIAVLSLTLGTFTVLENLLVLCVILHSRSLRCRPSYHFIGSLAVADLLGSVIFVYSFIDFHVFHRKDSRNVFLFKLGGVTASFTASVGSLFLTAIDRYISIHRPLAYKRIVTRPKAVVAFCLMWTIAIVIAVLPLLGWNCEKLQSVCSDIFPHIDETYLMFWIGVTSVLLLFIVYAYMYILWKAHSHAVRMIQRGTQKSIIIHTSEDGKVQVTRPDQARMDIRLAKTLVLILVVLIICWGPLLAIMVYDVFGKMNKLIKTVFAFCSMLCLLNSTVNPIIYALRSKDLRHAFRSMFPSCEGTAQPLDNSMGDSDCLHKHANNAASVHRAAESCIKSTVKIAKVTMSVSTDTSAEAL

The IC50 is the concentration at which inhibition is half-maximal. For `C#CCO[C@@H]1CC[C@H](Cc2ccccc2)N(C(=O)n2ncc(C(O)(c3ccc(F)cc3)c3ccc(F)cc3)n2)C1`, the values for the IC50 in [1] and in assay [2] were 5.01 nM and 1.26 nM, respectively.

The Ki is a measure of affinity in units of concentration, obtained from inhibition or displacement. In the case of `CCCCCCCCCCCC(C[C@@H]1OC(=O)[C@H]1CCCCCC)OC(=O)[C@@H](NC=O)C(C)CC` (stereo partly drawn), it took 6.31 nM to reach half-maximal inhibition in [3] (IC50). In addition, the Ki on Cannabinoid receptor 1 came to 6 µM.

Take `O=C(NCCCCCCNC(=O)ON=C1CCCCC1)ON=C1CCCCC1`: the IC50 in assay [4] was 5.01 µM; in assay [5], 25.1 µM.

As for `CCCCCCCCCCCC(C[C@@H]1OC(=O)[C@H]1CCCCCC)OC(=O)[C@H](CC(C)C)NC=O` (stereo partly drawn), the IC50 in assay [6] was 100 nM; in assay [1], 2000 nM.

On to `COc1ccccc1-c1ccc(-c2cn(C(=O)N3CCCCC3Cc3ccccc3)nn2)cc1` (stereo not drawn), for which the IC50 is 63.1 nM in assay [1], 126 nM in assay [2] and 79.4 nM in [7].

For `CC(C)(C)OC(=O)N1CCN(C(=O)n2cc(-c3ccc(OC(F)(F)F)cc3)nn2)C(Cc2ccccc2)C1` (stereo not drawn), the figures for the IC50 in assay [1], in assay [2] and in assay [8] were 2.51 nM, 0.501 nM and 7.94 nM, respectively.

As for `CC1(C)CCc2cc(S(=O)(=O)N(CC(=O)O)Cc3ccc(Oc4ccccc4)cc3)ccc2O1`, the IC50 in assay [9] was 1000 nM; in assay [10] it was 126 nM.

As to `O=C(N1CCCCC1Cc1ccccc1)n1cc(-c2ccc(-c3ccccc3)cc2)nn1` (stereo not drawn), the IC50 in assay [9] is 25.1 nM; in assay [1], 39.8 nM; in assay [2], 2510 nM; in assay [7], 79.4 nM.

As for `Cc1ccc(-c2cnc3nc(C(=O)CCCCCc4ccccc4)oc3c2)cc1`, the IC50 was 3.16 nM in [11] and 25.1 nM in [10].

In [10], `O=C(CCCCCc1ccccc1)c1nc2ncccc2o1` showed an IC50 of 501 nM.
